# Results reported in US20140005163A1 (NOVARTIS AG, priority 2010, published 2014).
# Columns and labels:
# [1] = test system: S6 Ribosomal Protein phosphorylation Ser235/236 in TSC1 null mouse embryo fibroblast (MEF) cells; experiment: Reverse protein array assay, S6 Ribosomal Protein phosphorylation Ser235/236 in TSC1 null MEF cells; format: cell-based; conditions: 1 h, pS6 ribosomal protein Ser235/236, 60 minutes incubation, read-out: p-S6 IC50
# Outline: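 TSC1−/− MEFs, seeded and held ≥20 h at 37 °C/5% CO2, were exposed to 8-step serial compound dilutions (0.02% DMSO final; DMSO vehicle control) for 60 min at 37 °C. Cells were then lysed on ice for 10 min and lysates spotted onto reverse protein array chips.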
# PI3K delta = target: T1, PI3K delta (Homo sapiens, UniProt O00329); experiment: PI3K delta kinase assay (Kinase-Glo luminescence); format: biochemical
# T1 construct: for the full-length p110-d subunit are generated and fused by overlapping PCR; p85(iSH2) fusion partner (see partner chain) (N); His tag (C); made in house; host or cells: baculovirus; Tn5 (Trichoplusia ni) or TiniPro insect cells
# Outline: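 Construct BV-1060, p85 iSH2–linker–full-length p110δ, His-tagged, at 10 nM, with 1 μM ATP and 10 μg/mL phosphatidylinositol in pH 7.5 Tris, 3 mM MgCl2, 50 mM NaCl, 0.05% CHAPS. Run 60 min at room temperature; remaining ATP read by Kinase-Glo luminescence; IC50 from 4-parameter logistic fit of 8 concentrations.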
# [2] = test system: PKB Ser473 phosphorylation in Rat1-myr-HA-p110 beta cells; experiment: Reverse protein array assay, PKB Ser473 phosphorylation in Rat1-myr-p110 beta cells; format: cell-based; conditions: 0.5 h, pAkt Ser473, 30 minutes incubation, read-out: p-PKB IC50
# Outline: (§1)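 Compound exposure lasted 30 min in Rat1 cells bearing membrane-targeted HA-p110 isoforms, using 8 serial concentrations. Arrayed lysates, each spotted at four dilutions, gave relative fluorescence signals for phospho-Ser473 PKB.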
# [3] = test system: PKB Ser473 phosphorylation in Rat1-myr-HA-p110 alpha cells; experiment: Reverse protein array assay, PKB Ser473 phosphorylation in Rat1-myr-p110 alpha cells; format: cell-based; conditions: 0.5 h, pAkt Ser473, 30 minutes compound incubation, read-out: p-PKB IC50
# Outline: as §1
# T1 sequence (O00329 with tags, fused parts or gaps limits assumed): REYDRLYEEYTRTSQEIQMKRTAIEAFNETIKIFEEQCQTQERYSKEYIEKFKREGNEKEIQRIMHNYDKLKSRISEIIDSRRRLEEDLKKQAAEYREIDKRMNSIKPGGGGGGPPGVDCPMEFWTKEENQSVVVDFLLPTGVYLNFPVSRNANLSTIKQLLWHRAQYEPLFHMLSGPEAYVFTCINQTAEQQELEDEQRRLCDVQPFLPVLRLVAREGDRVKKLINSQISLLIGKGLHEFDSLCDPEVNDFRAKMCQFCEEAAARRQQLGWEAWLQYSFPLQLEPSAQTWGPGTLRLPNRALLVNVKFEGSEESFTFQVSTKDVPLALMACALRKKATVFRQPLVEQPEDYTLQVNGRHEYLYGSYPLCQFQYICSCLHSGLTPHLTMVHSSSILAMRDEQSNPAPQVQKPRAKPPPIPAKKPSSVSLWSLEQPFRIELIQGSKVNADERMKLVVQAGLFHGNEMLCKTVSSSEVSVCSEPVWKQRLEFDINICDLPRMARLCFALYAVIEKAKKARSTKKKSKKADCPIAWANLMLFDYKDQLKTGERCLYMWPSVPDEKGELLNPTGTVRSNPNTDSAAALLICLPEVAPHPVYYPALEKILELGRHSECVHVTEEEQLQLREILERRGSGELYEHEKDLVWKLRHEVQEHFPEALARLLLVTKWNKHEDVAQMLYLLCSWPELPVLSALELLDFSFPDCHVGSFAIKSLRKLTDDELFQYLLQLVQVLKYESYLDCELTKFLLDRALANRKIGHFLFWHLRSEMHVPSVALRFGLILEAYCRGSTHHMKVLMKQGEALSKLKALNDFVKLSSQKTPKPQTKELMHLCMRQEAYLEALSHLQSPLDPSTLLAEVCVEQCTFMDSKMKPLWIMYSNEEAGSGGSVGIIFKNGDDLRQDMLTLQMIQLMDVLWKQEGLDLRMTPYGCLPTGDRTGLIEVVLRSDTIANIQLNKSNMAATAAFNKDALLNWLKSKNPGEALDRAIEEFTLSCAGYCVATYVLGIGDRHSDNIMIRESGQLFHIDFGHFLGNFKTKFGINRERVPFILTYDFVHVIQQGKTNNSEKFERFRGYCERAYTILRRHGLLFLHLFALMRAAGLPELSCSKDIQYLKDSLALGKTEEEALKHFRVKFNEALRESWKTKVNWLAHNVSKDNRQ
SMILES,IC50 [1] [µM],IC50 (PI3K delta) [µM],IC50 [2] [µM],IC50 [3] [µM]
"Cc1nn(C)cc1-n1c(=O)n(C)c2cnc3ccc(-c4cnc5c(ccn5C)c4)cc3c21 [Example 116, 1-(1,3-Dimethyl-1H-pyrazol-4-yl)-3-methyl-8-(1-methyl-1H-pyrrolo[2,3-b]pyridin-5-yl)-1,3-dihydro-imidazo[4,5-c]quinolin-2-one]",0.006,0.016,0.018,< 0.005
"CNC(=O)c1cc(-c2ccc3ncc4c(c3c2)n(-c2cn(C)nc2C)c(=O)n4C)cnc1OC [Example 125.1, 5-[1-(1,3-Dimethyl-1H-pyrazol-4-yl)-3-methyl-2-oxo-2,3-dihydro-1H-imidazo[4,5-c]quinolin-8-yl]-2-methoxy-N-methyl-nicotinamide]",0.002,0.026,0.098,0.075
"Cc1nn(C)cc1-n1c(=O)n(C)c2cnc3ccc(-c4ccc(N5CCNCC5)nc4)cc3c21 [Example 126, 1-(1,3-Dimethyl-1H-pyrazol-4-yl)-3-methyl-8-(6-piperazin-1-yl-pyridin-3-yl)-1,3-dihydro-imidazo[4,5-c]quinolin-2-one]",0.00533,0.102,0.265,0.141
"COc1ncc(-c2ccc3ncc4c(c3c2)n(-c2cn(C)nc2C)c(=O)n4C)cc1N [Example 127, 8-(5-Amino-6-methoxy-pyridin-3-yl)-1-(1,3-dimethyl-1H-pyrazol-4-yl)-3-methyl-1,3-dihydro-imidazo[4,5-c]quinolin-2-one]",0.003,0.009,0.009,0.005
"Cc1nn(C)cc1-n1c(=O)n(C)c2cnc3ccc(-c4cnc5ccn(C)c5c4)cc3c21 [Example 129, 1-(1,3-Dimethyl-1H-pyrazol-4-yl)-3-methyl-8-(1-methyl-1H-pyrrolo[3,2-b]pyridin-6-yl)-1,3-dihydro-imidazo[4,5-c]quinolin-2-one]",0.001,0.009,0.016,0.021
"CNc1ncc(-c2ccc3ncc4c(c3c2)n(-c2cn(C(C)C)nc2C)c(=O)n4C)cc1F [Example 141.3, 8-(5-Fluoro-6-methylamino-pyridin-3-yl)-1-(1-isopropyl-3-methyl-1H-pyrazol-4-yl)-3-methyl-1,3-dihydro-imidazo[4,5-c]quinolin-2-one]",0.002,0.009,0.013,0.01
"Cc1nn(C(C)C)cc1-n1c(=O)n(C)c2cnc3ccc(-c4cnc(N)c(F)c4)cc3c21 [Example 142.3, 8-(6-Amino-5-fluoro-pyridin-3-yl)-1-(1-isopropyl-3-methyl-1H-pyrazol-4-yl)-3-methyl-1,3-dihydro-imidazo[4,5-c]quinolin-2-one]",0.001,0.018,0.019,0.01
"CNc1ncc(-c2ccc3ncc4c(c3c2)n(-c2c(C)nn(C)c2C)c(=O)n4C)cc1C(F)(F)F [Example 144.1, 3-Methyl-8-(6-methylamino-5-trifluoromethyl-pyridin-3-yl)-1-(1,3,5-trimethyl-1H-pyrazol-4-yl)-1,3-dihydro-imidazo[4,5-c]quinolin-2-one]",0.002,0.013,0.049,0.026
"Cc1nn(C)c(C)c1-n1c(=O)n(C)c2cnc3ccc(-c4cnc(N)c(Cl)c4)cc3c21 [Example 148.1, 8-(6-Amino-5-chloro-pyridin-3-yl)-3-methyl-1-(1,3,5-trimethyl-1H-pyrazol-4-yl)-1,3-dihydro-imidazo[4,5-c]quinolin-2-one]",0.022,0.021,0.139,0.063
"Cc1nn(C)cc1-n1c(=O)n(C)c2cnc3ccc(-c4cnc(N)c(Cl)c4)cc3c21 [Example 148.2, 8-(6-Amino-5-chloro-pyridin-3-yl)-1-(1,3-dimethyl-1H-pyrazol-4-yl)-3-methyl-1,3-dihydro-imidazo[4,5-c]quinolin-2-one]",0.001,0.039,0.006,< 0.005
"CCNc1cc(-c2ccc3ncc4c(c3c2)n(-c2cn(C)nc2C)c(=O)n4C)cnc1CO [Example 155.1, 1-(1,3-Dimethyl-1H-pyrazol-4-yl)-8-(5-ethylamino-6-hydroxymethyl-pyridin-3-yl)-3-methyl-1,3-dihydro-imidazo[4,5-c]quinolin-2-one]",0.002,0.014,0.022,0.013
"CCNc1cc(-c2ccc3ncc4c(c3c2)n(-c2cn(CC)nc2C)c(=O)n4C)cnc1CO [Example 155.2, 8-(5-Ethylamino-6-hydroxymethyl-pyridin-3-yl)-1-(1-ethyl-3-methyl-1H-pyrazol-4-yl)-3-methyl-1,3-dihydro-imidazo[4,5-c]quinolin-2-one]",0.001,0.022,0.007,0.005
"CNc1cc(-c2ccc3ncc4c(c3c2)n(-c2cn(C(C)C)nc2C)c(=O)n4C)cnc1CO [Example 158.2, 8-(6-Hydroxymethyl-5-methylamino-pyridin-3-yl)-1-(1-isopropyl-3-methyl-1H-pyrazol-4-yl)-3-methyl-1,3-dihydro-imidazo[4,5-c]quinolin-2-one]",0.001,0.008,0.006,0.007
"CNc1cc(-c2ccc3ncc4c(c3c2)n(-c2cn(C)nc2Cl)c(=O)n4C)cnc1CO [Example 158.3, 1-(3-Chloro-1-methyl-1H-pyrazol-4-yl)-8-(6-hydroxymethyl-5-methylamino-pyridin-3-yl)-3-methyl-1,3-dihydro-imidazo[4,5-c]quinolin-2-one]",< 0.0005,0.004,< 0.005,< 0.005
"CNc1cc(-c2ccc3ncc4c(c3c2)n(-c2cn(C)nc2C)c(=O)n4C)cnc1C [Example 163, 1-(1,3-Dimethyl-1H-pyrazol-4-yl)-3-methyl-8-(6-methyl-5-methylamino-pyridin-3-yl)-1,3-dihydro-imidazo[4,5-c]quinolin-2-one]",0.002,0.005,< 0.005,< 0.005
"CCN(C)c1cc(-c2ccc3ncc4c(c3c2)n(-c2cn(C)nc2C)c(=O)n4C)cnc1C [Example 165, 1-(1,3-Dimethyl-1H-pyrazol-4-yl)-8-[5-(ethyl-methyl-amino)-6-methyl-pyridin-3-yl]-3-methyl-1,3-dihydro-imidazo[4,5-c]quinolin-2-one]",0.001,0.004,0.011,0.006
"Cc1nn(C(C)C)cc1-n1c(=O)n(C)c2cnc3ccc(-c4cnc(N)c(CO)c4)cc3c21 [Example 169.1, 8-(6-Amino-5-hydroxymethyl-pyridin-3-yl)-1-(1-isopropyl-3-methyl-1H-pyrazol-4-yl)-3-methyl-1,3-dihydro-imidazo[4,5-c]quinolin-2-one]",0.00563,0.022,0.037,0.027
"Cc1nn(C)cc1-n1c(=O)n(C)c2cnc3ccc(-c4cncc(NC5CCC5)c4)cc3c21 [Example 172, 8-(5-Cyclobutylamino-pyridin-3-yl)-1-(1,3-dimethyl-1H-pyrazol-4-yl)-3-methyl-1,3-dihydro-imidazo[4,5-c]quinolin-2-one]",0.001,0.033,0.013,0.009
"Cc1nn(C)cc1-n1c(=O)n(C)c2cnc3ccc(-c4cncc(N(C)C(C)C)c4)cc3c21 [Example 173, 1-(1,3-Dimethyl-1H-pyrazol-4-yl)-8-[5-(isopropyl-methyl-amino)-pyridin-3-yl]-3-methyl-1,3-dihydro-imidazo[4,5-c]quinolin-2-one]",0.002,0.037,0.029,0.016
"Cc1nn(C)cc1-n1c(=O)n(C)c2cnc3ccc(-c4cncc(N5CCOCC5)c4)cc3c21 [Example 175.1, 1-(1,3-Dimethyl-1H-pyrazol-4-yl)-3-methyl-8-(5-morpholin-4-yl-pyridin-3-yl)-1,3-dihydro-imidazo[4,5-c]quinolin-2-one]",0.001,0.07,0.037,0.017
"Cc1nn(C)cc1-n1c(=O)n(C)c2cnc3ccc(-c4cncc(N(C)C)c4)cc3c21 [Example 178, 8-(5-Dimethylamino-pyridin-3-yl)-1-(1,3-dimethyl-1H-pyrazol-4-yl)-3-methyl-1,3-dihydro-imidazo[4,5-c]quinolin-2-one]",0.002,0.085,0.049,0.02
"Cc1nn(C)cc1-n1c(=O)n(C)c2cnc3ccc(-c4cncc(N5CCC5)c4)cc3c21 [Example 179, 8-(5-Azetidin-1-yl-pyridin-3-yl)-1-(1,3-dimethyl-1H-pyrazol-4-yl)-3-methyl-1,3-dihydro-imidazo[4,5-c]quinolin-2-one]",0.01,0.087,0.021,0.018
